According to PMC5299686, “Betanodavirus-like particles enter host cells via clathrin-mediated endocytosis in a cholesterol-, pH- and cytoskeleton-dependent manner” (Veterinary Research, 2017):
Read-outs that look alike come from different tables or passages of the source.

Experiments:
SB cells = experiment: Cytotoxicity assay (CellTiter 96 AQueous One Solution Cell Proliferation Assay)
Experimental: To optimize the working concentration of the inhibitors, the cytotoxicity of the drugs to SB cells were evaluated. SB cells grown in 96-well plates were treated with the inhibitors at different concentrations for 4 h. Then cell viability was assayed using CellTiter 96® AQueous One Solution Cell Proliferation Assay (Promega, USA) according to the manufacturer’s instructions.

RBS entry into SB cells [1] = experiment: VLP (RBS) entry assay with inhibitor or siRNA perturbation, ELISA quantitation; assay type: cell-based, Lates calcarifer; conditions: for change of RBS entry efficiency compared with untreated cells: 2 h entry
Experimental: (§1) Virus-like particles entry (invasion) assays were performed using SB or other indicated cells as described. In brief, the cells were seeded on coverslips in 12-well plates or cultured in 96-well plates for 18 or 24 h to achieve 70% confluence, pretreated with the indicated inhibitors at the indicated temperature (26 °C for fish cells, 28 °C for insect cells, and 37 °C for mammalian cells) and concentration (Table 1) for 1 h, and then incubated with RBS or CGV in the presence of the inhibitors for 1 h on ice. After that, the cells were washed three times with pre-cooling PBS, shifted to 28 °C to start entry, and visualized directly by fluorescent microscopy for CGV entry kinetics, or fixed for IFA followed by fluorescent microscopy, or collected for ELISA at the indicated times. In the untreated (positive) or mock-infected (negative) controls, the cells were subjected to no inhibitor treatment or no VLP incubation respectively. The entry assay of each inhibitor was repeated at least three times.
Six wells of cells in a 96-well plate treated with the same condition in entry assays were washed thoroughly with PBS, lysed with 20 μL of lysis buffer in each well and combined as one sample. Endogenous β-actin was used as an internal normalization control for ELISA. Three-hundred microliters of 30-fold diluted lysate for VLP detection or 100-fold diluted lysate for β-actin detection were coated equally in three wells of a 96-well microtiter plate at 4 °C overnight, respectively. The plate was conducted to room temperature and washed three times with 200 μL PBS. After blocking with 5% bovine serum albumin (BSA) in PBS for 1 h at room temperature and washing three times (all washes below indicate triplicate washings) with 200 μL PBS containing 0.05% Tween20 (PBST), the plate was incubated with in-house produced mouse anti-VLP antiserum at a dilution of 1:2000 in PBS for 1 h. The plate was washed and peroxidase-conjugated goat anti-mouse IgG (Sigma) at a dilution of 1:3000 in PBS was added and incubated for 1 h. Following thorough washings (five times), 100 μL of OPD substrate (Sigma) was added and the color development was conducted at room temperature. The reaction was stopped by the addition of 4 M sulfuric acid and the absorbance at 492 nm was determined. The OD492 of each sample including treated and untreated cells was normalized with the corresponding OD492 of β-actin to obtain the relative VLP quantity. The entry efficiency was generated as the percentage of treated cells with incorporated VLP relative to that for untreated cells. The VLP entry efficiency of untreated cells was arbitrarily set as 100%. The data shown are the mean ± SD of the results from three independent experiments. Statistical differences of VLP content from different groups were assessed by paired Student’s t tests. Numerical results are presented as mean ± SD with 95% confidence intervals and p < 0.05 was considered statistically significant (*, p < 0.05; **, p < 0.01).

RBS entry into SB cells [2] = experiment: VLP (RBS) entry assay, IFA and fluorescent microscopy; assay type: cell-based, Lates calcarifer; conditions: at the working concentrations (CPZ 1 to 70 μM; dynasore 1, 10, 80 μM; siRNA 48 h post-transfection)
Experimental: (§2) Virus-like particles entry (invasion) assays were performed using SB or other indicated cells as described. In brief, the cells were seeded on coverslips in 12-well plates or cultured in 96-well plates for 18 or 24 h to achieve 70% confluence, pretreated with the indicated inhibitors at the indicated temperature (26 °C for fish cells, 28 °C for insect cells, and 37 °C for mammalian cells) and concentration (Table 1) for 1 h, and then incubated with RBS or CGV in the presence of the inhibitors for 1 h on ice. […]
(§3) Cells were washed twice with PBS, fixed with 4% paraformaldehyde for 15 min, permeated with 0.2% Triton X-100 for 10 min, and then blocked with 5% BSA for 1 h. […] For identification of entry and trafficking of RBS in cells, images were acquired using a laser scanning confocal fluorescence microscope (TCS-SP5, Leica Microsystems Wetzlar GmbH Inc., Germany). Images were acquired randomly from 5 different fields of view per coverslip to get more than 20 cells and to allow observing the signals of targets and nuclei fluorescence by Leica Application Suite (2.6.0 build 7266). […] The results are expressed as the mean ± standard deviation (SD).

RBS entry into GB cells = experiment: VLP entry assay and IFA on GB cells; assay type: cell-based, Epinephelus coioides; conditions: GB cells pretreated with CPZ for 1 h
Experimental: as §2, §3

[3] = system: RBS entry into SSN-1 cells; experiment: VLP entry assay and IFA on SSN-1 cells; assay type: cell-based, Channa striatus; conditions: SSN-1 cells pretreated with CPZ for 1 h
Experimental: as §2, §3

CGV entry into SB cells = experiment: CGV entry assay, ELISA quantitation; assay type: cell-based, Lates calcarifer
Experimental: as §1, with “In the untreated (positive) or mock-infected (negative) controls, the cells were subjected to no inhibitor treatment or no VLP incubation respectively. The entry assay of each inhibitor was repeated at least three times.” left out
Six wells of cells in a 96-well plate treated with the same condition in entry assays were washed thoroughly with PBS, lysed with 20 μL of lysis buffer in each well and combined as one sample. […] The reaction was stopped by the addition of 4 M sulfuric acid and the absorbance at 492 nm was determined. The OD492 of each sample including treated and untreated cells was normalized with the corresponding OD492 of β-actin to obtain the relative VLP quantity. […] Statistical differences of VLP content from different groups were assessed by paired Student’s t tests. […]

[4] = Lates calcarifer, read-out: RBS entry blocked (inhibited)
[5] = 40 μM inhibitor alone, SB cells, ELISA
[6] = 1 mM inhibitor, SB cells, ELISA

In the case of `CN(C)C[C@H](O)Cn1c2ccc(Br)cc2c2cc(Br)ccc21` (racemic) [wiskostatin], the “MC, max concentration that can be used without cytotoxicity” value (SB cells; SB cells, 4 h treatment) was 50 µM, the inhibition at 1 µM (RBS entry into SB cells [1]; [4]) was 77.9% and the inhibition at 10 µM (RBS entry into SB cells [1]; [4]) was 84.6%. It also gave an inhibition at 50 µM (RBS entry into SB cells [1]; [4]) of 94.2%.
In the case of `O=S(=O)(c1cccc2c(I)cccc12)N1CCCNCC1` [ML-7], the “MC, max concentration that can be used without cytotoxicity” value (SB cells; SB cells, 4 h treatment) was 40 µM and the “change of RBS entry efficiency compared with untreated cells” value (from here on “change of RBS entry efficiency”) (RBS entry into SB cells [1]; [5]) was “no statistically significant change”.
In the case of `COC(=O)Nc1nc2ccc(C(=O)c3cccs3)cc2[nH]1` [nocodazole], the “MC, max concentration that can be used without cytotoxicity” value (SB cells; SB cells, 4 h treatment) was 160 µM, the inhibition at 1 µM (RBS entry into SB cells [1]; [4]) was 59.4% and the inhibition at 5 µM (RBS entry into SB cells [1]; [4]) was 74%. For the same molecule, the inhibition at 50 µM (RBS entry into SB cells [1]; [4]) was 81.3%.
`Cl.N` [NH4Cl, ammonia chloride] was tested, and the “MC, max concentration that can be used without cytotoxicity” value (SB cells) was 50 000 μM and the “VLP entry efficiency (untreated cells = 100%)” value (RBS entry into SB cells [1]; 50 mM inhibitor, SB cells, ELISA) was 25%.
In the case of `CN(C)CCCN1c2ccccc2Sc2ccc(Cl)cc21` [CPZ, chlorpromazine], the “MC, max concentration that can be used without cytotoxicity” value (SB cells; SB cells, 4 h treatment) was 700 µM, the “change of RBS entry efficiency” value (RBS entry into SB cells [1]; 7 μM inhibitor alone, SB cells, ELISA) was “dramatically reduced” and the “VLP entry efficiency (untreated cells = 100%)” value (RBS entry into SB cells [1]; 70 μM inhibitor, SB cells, ELISA) was 5%. It also gave an inhibition at 1 µM (RBS entry into SB cells [1]; [4]) of 70%, an inhibition at 7 µM (RBS entry into SB cells [1]; [4]) of 80% and an inhibition at 70 µM (RBS entry into SB cells [1]; [4]) of 95%. The “fluorescent signal of RBS in cells (IFA) compared with untreated cells” value (RBS entry into SB cells [2]) was “significantly reduced”, the “VLP entry efficiency in treated compared with untreated samples (IFA)” value (RBS entry into GB cells) was “dramatically decreased” and the “VLP entry efficiency in treated compared with untreated samples (IFA)” value [3] was “dramatically decreased”.
With `CC(=O)c1c(O)c(C)c(O)c(Cc2c(O)c3c(c(C(=O)/C=C/c4ccccc4)c2O)OC(C)(C)C=C3)c1O` [rottlerin] the “MC, max concentration that can be used without cytotoxicity” value (SB cells; SB cells, 4 h treatment) was 40 µM and the “change of RBS entry efficiency” value (RBS entry into SB cells [1]; [5]) was “no statistically significant change”.
For `CCN(CC)CCCC(C)Nc1ccnc2cc(Cl)ccc12` (centres unmarked) [chloroquine], the “MC, max concentration that can be used without cytotoxicity” value (SB cells; SB cells, 4 h treatment) was 1000 µM, the “RBS entry blocked (inhibited)” value (RBS entry into SB cells [1]; [6]) was “totally block” and the inhibition at 10 µM (RBS entry into SB cells [1]; [4]) was over 70%.
`O=c1c(-c2ccc(O)cc2)coc2cc(O)cc(O)c12` [genistein] was tested, and the “MC, max concentration that can be used without cytotoxicity” value (SB cells; SB cells, 4 h treatment) was 100 µM and the “entry quantity of VLP compared with mock-treated control” value (RBS entry into SB cells [1]; 100 μM inhibitor, SB cells, ELISA) was 88%.
For methyl-β-cyclodextrin [MβCD], the “RBS entry blocked (inhibited)” value (RBS entry into SB cells [1]; 0.5 mM inhibitor, SB cells, ELISA) was 63.6%, the “RBS entry blocked (inhibited)” value (RBS entry into SB cells [1]; [6]) was 59.5% and the “RBS entry blocked (inhibited)” value (RBS entry into SB cells [1]; 2 mM inhibitor, SB cells, ELISA) was 74.4%.
With `Oc1ccc2ccccc2c1SSc1c(O)ccc2ccccc12` [IPA-3] the “MC, max concentration that can be used without cytotoxicity” value (SB cells; SB cells, 4 h treatment) was 40 µM and the “change of RBS entry efficiency” value (RBS entry into SB cells [1]; [5]) was “no statistically significant change”.
With `C=C1[C@@H](C)[C@H]2[C@H](Cc3ccccc3)NC(=O)[C@]23[C@H](OC(C)=O)/C=C/[C@@](C)(O)C(=O)[C@@H](C)C/C=C/[C@H]3[C@@H]1O` [CytD, cytochalasin D] the “MC, max concentration that can be used without cytotoxicity” value (SB cells; SB cells, 4 h treatment) was 77.8 µM, the inhibition at 1 µM (RBS entry into SB cells [1]; [4]) was 83.2% and the inhibition at 10 µM (RBS entry into SB cells [1]; [4]) was 96%. The inhibition at 77.8 µM (RBS entry into SB cells [1]; [4]) was 96.5%.
`O=C(N/N=C/c1ccc(O)c(O)c1)c1cc2ccccc2cc1O` [dynasore] was tested, and the “MC, max concentration that can be used without cytotoxicity” value (SB cells; SB cells, 4 h treatment) was 800 µM, the “VLP entry efficiency (untreated cells = 100%)” value (RBS entry into SB cells [1]; 1 μM inhibitor, SB cells, ELISA) was 71.4% and the “VLP entry efficiency (untreated cells = 100%)” value (RBS entry into SB cells [1]; 10 μM inhibitor, SB cells, ELISA) was 48.5%. For the same molecule, the “VLP entry efficiency (untreated cells = 100%)” value (RBS entry into SB cells [1]; 80 μM inhibitor, SB cells, ELISA) was 40% and the “fluorescent signal of RBS in cells (IFA) compared with untreated cells” value (RBS entry into SB cells [2]) was “significantly reduced”.
For `CC(C)CCC[C@@H](C)[C@H]1CC[C@H]2[C@@H]3CC=C4C[C@@H](O)CC[C@]4(C)[C@H]3CC[C@]12C` [cholesterol], the “effect of cholesterol supplement on CGV entry” value (CGV entry into SB cells; SB cells not treated with MβCD) was “did not enhance the entry of CGV” and the “CGV entry efficiency after cholesterol replenishment compared with mock-treated cells” value (CGV entry into SB cells; SB cells pretreated with 5 mM MβCD, then exogenous cholesterol 0.8 μg/μL for 1 h) was 57%.
In the case of `CCN(CC)CCCC(C)Nc1nc(C)cc(Nc2ccc3nc(C)cc(N)c3c2)n1` (centres unmarked) [NSC23766], the “MC, max concentration that can be used without cytotoxicity” value (SB cells; SB cells, 4 h treatment) was 40 µM and the “change of RBS entry efficiency” value (RBS entry into SB cells [1]; [5]) was “no statistically significant change”.
In the case of `COC[C@H]1OC(=O)c2coc3c2[C@@]1(C)C1=C(C3=O)[C@@H]2CCC(=O)[C@@]2(C)C[C@H]1OC(C)=O` [wortmannin], the “MC, max concentration that can be used without cytotoxicity” value (SB cells; SB cells, 4 h treatment) was 50 µM, the inhibition at 1 µM (RBS entry into SB cells [1]; [4]) was -1.4% and the inhibition at 10 µM (RBS entry into SB cells [1]; [4]) was 0.82%. For the same molecule, the inhibition at 50 µM (RBS entry into SB cells [1]; [4]) was 23%.
